Assay [1] concerns IM95m human gastric tumor xenograft. The assay can be described thus: Human gastric cancer IM95m tumor xenograft model. In kind it is in vivo, mouse. The settings on record: SCID mice, s.c. IM95m; day 53 to day 81; HuL2G7 10 mg/kg i.v. once-weekly, erlotinib 25 mg/kg p.o. once-daily days 53-80, or both. The protocol:
FIG. 1. (A) Combination effects of humanized L2G7 (HuL2G7) and erlotinib in gastric cancer (tumor) IM95m xenograft model. Treatment was started from 53 days after inoculation. Mice treated with relevant vehicles (i.v. and/or p.o.), HuL2G7 (10 mg/kg/week, i.v., on days 53, 60, 67, and 74), erlotinib (25 mg/kg, p.o., qd×28 doses) or the combined regimen for 28 days. Data represents mean±SD (n=6). *p≦0.025 by one-tailed Dunnett's test (v.s. vehicle). (B) Comparison of differential tumor volumes of the mice group treated with HuL2G7, erlotinib, and a combination of the two. Tumor volume of each mouse on days 53 was subtracted from the volume on days 81. Data represents mean±SD (n=6). # p≦0.05 by Wilcoxon signed-rank test (v.s. combo).

The test system of assay [2] is KP-4 human pancreatic tumor xenograft. As to conditions: 40 mg/kg.
Method: Sunitinib was administered orally and once-daily at a dose of 40 mg/kg on days 11-25 as its 0.5% methyl cellulose suspension. Administration volume was 10 mL/kg.
A further assay deals with c-Met receptor (Homo sapiens, UniProt P08581). The settings on record: read-out: Kd, high affinity binding site; cited from earlier work.
c-Met receptor, sequence (P08581 25-1390): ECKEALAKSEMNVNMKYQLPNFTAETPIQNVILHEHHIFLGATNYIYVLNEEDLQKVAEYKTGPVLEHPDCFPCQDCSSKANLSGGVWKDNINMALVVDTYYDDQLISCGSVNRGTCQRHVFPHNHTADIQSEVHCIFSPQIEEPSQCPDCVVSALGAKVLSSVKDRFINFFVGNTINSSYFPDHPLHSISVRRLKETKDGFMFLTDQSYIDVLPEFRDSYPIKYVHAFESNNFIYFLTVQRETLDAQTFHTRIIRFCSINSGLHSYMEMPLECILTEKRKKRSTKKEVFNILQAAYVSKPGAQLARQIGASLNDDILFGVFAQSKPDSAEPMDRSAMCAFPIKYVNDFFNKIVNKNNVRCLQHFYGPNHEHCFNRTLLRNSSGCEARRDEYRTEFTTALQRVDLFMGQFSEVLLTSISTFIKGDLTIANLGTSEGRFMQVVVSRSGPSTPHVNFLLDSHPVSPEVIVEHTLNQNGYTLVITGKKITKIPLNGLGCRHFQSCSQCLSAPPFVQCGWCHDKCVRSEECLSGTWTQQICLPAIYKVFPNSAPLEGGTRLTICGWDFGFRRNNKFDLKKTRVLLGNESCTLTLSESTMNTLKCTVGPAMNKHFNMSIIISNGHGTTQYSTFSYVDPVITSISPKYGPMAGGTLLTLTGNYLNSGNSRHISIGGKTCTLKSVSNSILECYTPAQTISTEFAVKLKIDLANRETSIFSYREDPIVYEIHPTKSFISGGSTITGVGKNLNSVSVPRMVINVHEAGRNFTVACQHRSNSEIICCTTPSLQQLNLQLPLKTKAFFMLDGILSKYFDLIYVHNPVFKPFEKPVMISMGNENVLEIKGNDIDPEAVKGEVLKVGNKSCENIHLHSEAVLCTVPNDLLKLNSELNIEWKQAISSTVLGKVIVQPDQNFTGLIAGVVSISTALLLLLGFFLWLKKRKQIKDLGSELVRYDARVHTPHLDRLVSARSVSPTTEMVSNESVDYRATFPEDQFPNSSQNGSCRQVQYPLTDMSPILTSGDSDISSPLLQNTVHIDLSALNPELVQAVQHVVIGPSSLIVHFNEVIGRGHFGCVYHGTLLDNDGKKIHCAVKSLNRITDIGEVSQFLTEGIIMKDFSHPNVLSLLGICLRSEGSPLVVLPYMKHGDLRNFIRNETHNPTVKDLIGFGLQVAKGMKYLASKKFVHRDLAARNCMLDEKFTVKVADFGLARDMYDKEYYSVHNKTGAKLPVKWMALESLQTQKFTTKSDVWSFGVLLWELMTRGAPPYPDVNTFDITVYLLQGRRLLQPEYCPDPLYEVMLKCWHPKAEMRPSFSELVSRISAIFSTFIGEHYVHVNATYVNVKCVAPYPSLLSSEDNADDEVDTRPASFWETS
Assay [3] has as its target heparin sulfate proteoglycans (HSPG). The settings on record: HSPG on the cell surface and extracellular matrix; read-out: Kd, low affinity binding site; cited from earlier work.

As for `C#Cc1cccc(Nc2ncnc3cc(OCCOC)c(OCCOC)cc23)c1` [erlotinib], in assay [1], the “T/C (%) = ΔT/ΔC×100, change in tumor volume” value stood at 45%.
Take `CCN(CC)CCNC(=O)c1c(C)[nH]c(/C=C2\C(=O)Nc3ccc(F)cc32)c1C` [sunitinib]: the “T/C (%) = ΔT/ΔC×100, change in tumor volume” value in assay [2] came out at 48%.
As to “HGF: multifunctional heterodimeric polypeptide, 102 kDa, ligand of c-Met”, the Kd is 200 pM with c-Met receptor and 1000 pM in assay [3].

Source of the values: patent US20120052064A1, “ANTI-HGF ANTIBODY COMBINATIONAL CANCER THERAPIES” (priority 2009, published 2012).
